For `Cc1nc(NC(=O)c2ccco2)sc1C(=O)c1sc(NC(=O)c2ccco2)nc1C`, the melting point is 198 to 199 °C.
With `CCCCc1nc(N)c(C(=O)OCC)[nH]1` the figure was 103 to 106 °C; with `CCCC(CCC)n1nnc2c(Oc3c(Br)cc(C(C)C)cc3OC)nc(C)nc21`, 129 to 131 °C; with `CCOC(=O)c1c(CC)ncnc1NCCc1ccc(CCO)cc1`, 68 to 71 °C.
With `CS(=O)(=O)c1ncc(F)c(NCc2ccccc2F)n1` the figure was 105 to 107 °C.
The value for `NS(=O)(=O)c1cc2[nH]c(C(F)F)nc2cc1Cl` was 233 to 235 °C; that for `O=C(CNc1ccc(Cl)cc1)c1cc(O)c(O)c([N+](=O)[O-])c1` was 177 to 178 °C.
As for `Cc1nc2c(c3c1[nH]c1ccc(F)cc13)C(=O)CC(C)(C)C2`, the melting point was 229 to 230 °C.
Compound `CS(=O)(=O)c1cnc2c(c1)CCC(c1ccc(Cl)c(Cl)c1)O2` (stereo not given) came in with a melting point of 172 °C.
The value for `Fc1ccc2c(c1)N=C(N1CCNCC1)c1sccc1N2` was 165 to 167 °C; that for `CCn1cc(C(=O)NC2Cc3ccccc3C2)c(=O)c2cnc(N3CCCC3)nc21` was 252 to 253 °C.
For `CC(=O)Nc1ncnc2c1ncn2[C@@H]1C[C@H](OC(C)=O)[C@@H](O)[C@H]1O` (racemic), the melting point lay within 193 to 195 °C.
Consider `COC1CCN(C2CCN(c3ccc(N)cc3C#N)CC2)CC1`, for which the melting point is 125 to 130 °C.
With `Fc1ccccc1N1CCN(c2ccc(Cl)nn2)CC1`, the melting point came out at 148 °C.
The value for `O=C(O)Cc1ccc2c(c1)Nc1ccccc1S2` was 202 °C.
The value for `COC(=O)Cc1ccc(OCc2nc(-c3ccccc3)oc2C)cc1` was 74 to 75 °C; that for `CNC1=NS(=O)N=C1CCS` (stereo not given) was 191 to 193 °C; that for `COc1cc(C(=O)Cl)ccc1OCCCCl` was 60 to 63 °C.
With `CN1C=NC(Cc2ccccc2)(Cc2ccccc2)C1=O` the figure was 125 to 126 °C.
The compound `O=[N+]([O-])c1ccc(CCc2nccs2)cc1` displayed a melting point of 92 to 93 °C.
Compound `c1ccc(CCCCNCCOc2cccc3[nH]ccc23)cc1` gave a melting point of 99 to 101 °C.
The value for `CN=C1CSc2ccccc2CN1` was 278 to 280 °C.
With `O=C(Nc1ccc(Cl)c(Cl)c1)ONC1=Nc2ccc([N+](=O)[O-])cc2C(c2ccccc2Cl)=NC1` the figure was 190 to 192 °C.
With `Cc1cc(F)ccc1NC(=O)OC(C)(C)C` the figure was 93 to 95 °C; with `O=C1CC2(CCCC2)CC(=O)N1CCCCc1ccncc1`, 155 to 157 °C; with `CCc1c(O)c(C(C)=O)c(C)c2c1OC(C)(C)CC2C` (stereo not given), 70 to 71 °C.
As for `Nc1c(-c2csc(-c3ccncc3)n2)c(=O)[nH]c2ccc(Cl)cc12`, the melting point is over 220 °C.
The value for `O=C(O)CCC(O)c1ccc(-c2ccc(Cl)cc2)o1` (stereo not given) was 100 to 101 °C; that for `CN1CCN(C2CCN(c3ncc4ncnc(Nc5ccc(F)c(Cl)c5)c4n3)CC2)CC1` was 163 to 165 °C; that for `CCOC(=O)CN1C(=O)COc2c(Cl)nc(C)nc21` was 69 to 70 °C.
Compound `CC(=O)SCC(Cc1ccccc1)C(=O)Nc1cc(C(=O)OCc2ccccc2)ccc1C` (stereo not given) displayed a melting point of 134 to 135 °C.
The value for `Fc1ccc(F)c(CN2CCNc3ncc(-c4ccnc(N5CCOCC5)c4)cc32)c1Cl` was 157 °C; that for `CCC(C(=O)Nc1ccc2cc[nH]c2c1)c1ccccc1` (stereo not given) was 143 to 144 °C.
The value for `CCOC(=O)c1c(CSc2ccccc2)n(C)c2cc(Br)c(O)c(CN(C)C)c12` was 127 to 128 °C.
For `Cn1c(C(F)(F)F)cc(=O)n(-c2c(O)cc(F)cc2F)c1=O`, the melting point is 195 to 196 °C.
`O=C(Nc1ccc([N+](=O)[O-])cc1O)OCc1ccccc1` yielded a melting point of 200 °C.
With `NC(=O)c1sc2nccc(N3CCN(C(c4ccccc4)c4ccccc4)CC3)c2c1N` the figure was 225 to 233 °C; with `COc1ccc(OCC(O)CN2CCC(c3noc4cc(F)ccc34)CC2)cc1` (stereo not given), 134 to 135 °C.
With `CCCCCCCCCCCCCC(=O)N(CCCCCCCC)CCC(=O)O` the figure was 47 °C; with `O=S(=O)(N[C@@H]1C[C@@H](/C=C\CCCCO)N(S(=O)(=O)c2ccc(Cl)cc2)C1)c1ccc(Cl)cc1`, 108 to 109 °C; with `CC#CC1CCC(c2ccc(C3CCC(CCC)CC3)cc2)CC1` (stereo not given), 134 °C.
The value for `CCCc1c(CSc2ncccc2OCC(=O)OCC)ccc(C(C)=O)c1O` was 98 to 100 °C.
`CN1CCC(=C2c3ccccc3C(CO)=C(CO)c3ccccc32)CC1` showed a melting point of 204 to 205 °C.
The value for `Nc1ccc(Nc2c(NCc3ccccc3)cc(C(=O)O)cc2S(=O)(=O)Nc2ccc(N)cc2)cc1` was 238 °C.
The value for `Cn1nnnc1C=C(c1ccc(F)cc1)c1ccc(F)cc1` was 169 to 171 °C; that for `O=C(NCc1ccccn1)Nc1cc(N2CC(c3cccc(F)c3)CC2=O)ccn1` (stereo not given) was 188 to 189 °C.
With `O=C(O)C(c1ccccc1)n1nnc(C(c2ccccc2)c2ccccc2)n1` (stereo not given) the figure was 158 to 161 °C; with `CC(=O)Nc1ccc(S(=O)(=O)c2ccc(Br)cc2)cc1`, 195 to 199 °C; with `COc1ccc(Br)c2c1-c1ccc(NS(C)(=O)=O)cc1C(c1ccccc1)O2` (stereo not given), 122 to 123 °C.
As to `C=Cc1cc(C)cc(C)c1C1=C(O)C2(CCN(OC)CC2)N(OC2CCCO2)C1=O` (stereo not given), the melting point was in the range of 132 to 135 °C.
`OC(CCNCc1ccccc1)(c1ccccc1)c1ccccc1` returned a melting point of 145 to 146 °C.
With `CCOc1nc2cc(C)nn2c2cc(Cl)ncc12` the figure was 176 °C.
The value for `CN1CC(=O)C(C)(C)CC1=O` was 52 to 54 °C; that for `CC(C(=O)c1c(O)c2cccnc2n(-c2cccc(C(F)(F)F)c2)c1=O)c1ccccc1` (stereo not given) was 200 to 201 °C.
With `CCCCCOc1cc(C(=O)O)cc(S(N)(=O)=O)c1-c1ccccc1` the figure was 152 to 155 °C; with `CNC=C(C(=O)C=Cc1ccc(Cl)cc1)C(=O)OC`, 114 to 116 °C.
For `CN1CCC2=C(CCCC2)C1Cc1ccc(O)cc1` (single isomer, unassigned; (-)), the melting point lay in the range of 119 to 120 °C.
With `O=C(NC(=O)C(c1ccccc1)c1ccccc1)C1CC1` the figure was 178 °C; with `CCC(=C(c1ccc(I)cc1)c1ccc(OCCCCCl)cc1)c1ccccc1`, 85 to 87 °C.
`COc1ccc(-c2nc(C(=O)C(F)(F)F)[nH]c2-c2ccc(OC)cc2)cc1` registered a melting point of 191 to 192 °C.
The value for `COc1cccc(Oc2c(NS(=O)(=O)c3ccc(C(C)(C)C)cc3)ncnc2OCCOc2ncc(C(C)O)cn2)c1` (stereo not given) was 133 to 135 °C.
The value for `CN(C)CC1CNc2ccccc2C1` (stereo not given) was 85 to 89 °C; that for `CCS(=O)c1nc(-c2ccc(OC)cc2)c(-c2ccc(OC)cc2)[nH]1` (stereo not given) was 161 to 162 °C; that for `CCOC(=O)c1c(Nc2ccccc2C)n[nH]c1C` was 156 to 160 °C.
In turn, `Clc1cc(Oc2ccc3[nH]ccc3c2)ncn1` came in with a melting point of 137 to 138 °C.
With `COCn1c(=O)n(-c2ccc3c(c2)OCO3)c2ncccc21` the figure was 152 to 153 °C; with `COc1ccc2nc(NC(=O)C(CC3CCCC3)c3ccc(S(=O)(=O)CCc4ccccc4)cc3)sc2n1` (stereo not given), 169 to 172 °C.
For the compound `O=C(c1cc2cc([N+](=O)[O-])ccc2[nH]1)N1CC(CCl)c2c1cc([N+](=O)[O-])c1ccccc21` (stereo not given), the melting point was over 300 °C.
In the case of `CC(C(=O)O)c1ccc(N)c(C(F)(F)F)c1` (stereo not given), the melting point lay within 73 to 75 °C.
The value for `COc1ccc(N2C(=O)C(O[Si](C(C)C)(C(C)C)C(C)C)C2c2ccc(C(F)(F)F)cc2)cc1` (stereo not given) was 132 to 133 °C; that for `Cc1cc(=O)[nH]c2c(C)cc(Br)cc12` was over 300 °C.
The compound `C=CCc1cc(C(=O)OC)ccc1OCCCCCOc1ccc2c(=O)cc(C(=O)OC)oc2c1CCC` yielded a melting point of 87 to 88 °C.
On to `CC(=O)OC1CSC(Oc2ccccc2[N+](=O)[O-])C(OC(C)=O)C1OC(C)=O` (stereo not given), for which the melting point was 148 °C.
The compound `Clc1nc(Br)cnc1N1CCNCC1` yielded a melting point of 114 to 115 °C.
The value for `CC(CO)(CO)NS(=O)(=O)c1cccc([N+](=O)[O-])c1` was 116 °C.
The value for `O=C(NC(=O)c1c(F)cccc1F)Nc1ccc(-c2ccc(Cl)cc2)c(Cl)n1` was 237 to 241 °C; that for `ON=Cc1ccc2c(c1)ncn2-c1cccc(N2CCCCC2)c1` was 213 to 214 °C; that for `COC(=O)C(Cc1ccc(OCCN(C)c2nc3ccccc3o2)cc1)Oc1ccc(Cl)cc1` (stereo not given) was 88 to 90 °C.
Take `CCOC(=O)/C=C/c1cn(-c2ccc(C(F)(F)F)cn2)nc1C1CCCCC1`: the melting point lay within 132 to 133 °C.
Turning to `O=C(O)[C@H]1C[C@H](NCc2ccccc2)c2c(Cl)cc(Cl)cc2N1` (relative stereo), the melting point is 112 to 114 °C.
The value for `CCCCCCCCCCCCCCCCCCNC(=O)OC(=O)CCCCCCCCCCCCCCCCC` was 84 °C; that for `CC(C(=O)O)c1cccc2cn[nH]c12` (stereo not given) was 171 to 176 °C; that for `CC(=O)[Si](C)(C(C)(C)C)C(C)(C)C` was 35 °C.
As to `Oc1ncnc2c1CCOc1ccccc1-2`, the melting point is 241 to 243 °C.
With `CN1C(=O)C(c2ccc(OC(F)(F)F)c(F)c2)(c2ccc(F)c(-c3cncc(F)c3)c2)N=C1N` (stereo not given) the figure was 91 to 97 °C; with `Cc1cc(=O)oc2cccc(SC(=O)N(C)C)c12`, 129 °C; with `CSc1nc(Cl)c(C#N)s1`, 83 to 87 °C.
The value for `COc1ccc(-c2nc(S(=O)c3ccncc3)[nH]c2-c2ccc(OC)cc2)cc1` (stereo not given) was 170 to 171 °C.
`CC(C)Oc1c(C(=O)Nc2ccccc2)oc2ccc(Cl)cc12` displayed a melting point of 82 to 83 °C.
With `CCOc1ccc(S(=O)(=O)N(CC(=O)NN=C2C(=O)Nc3ccc(I)cc32)c2ccccc2)cc1` the figure was 233 to 234 °C.

What is called melting point is the temperature of the solid-liquid transition.

(Values after a melting point compilation (Tetko et al.; mined from patent text by program, amines drawn as free bases though some values may be those of a salt).)
